Reference: PubChem BioAssay (NCI)
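How tested: cells in 96-well plates exposed to compound for 48 hours at five concentrations. TGI marks complete inhibition of growth.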

Columns and labels:
Test in all cases: NCI tumour cell line growth inhibition, 48 h
MDA-N = system: MDA-N
MDA-MB-231 breast = system: MDA-MB-231 breast
MALME-3M melanoma = system: MALME-3M melanoma
SNB-78 CNS = system: SNB-78 CNS
XF 498 CNS = system: XF 498 CNS
KM20L2 colon = system: KM20L2 colon
DLD-1 colon = system: DLD-1 colon
LXFL 529 NSCLC = system: LXFL 529 NSCLC
HOP-18 NSCLC = system: HOP-18 NSCLC
RXF-631 renal = system: RXF-631 renal
DMS 114 small cell lung = system: DMS 114 small cell lung
DMS 273 small cell lung = system: DMS 273 small cell lung
M19-MEL melanoma = system: M19-MEL melanoma

For `CC#CC(O)(C(=O)OC1CC(C)N(C)C(C)(C)C1)C1CCCC1` (configuration not stated), the TGI (MDA-N) was > 100 µM, the TGI (MDA-MB-231 breast) was > 100 µM and the TGI (MALME-3M melanoma) was > 100 µM.
In the case of `COC(=O)N1N=C(c2ccccc2)C1c1ccccc1` (configuration not stated), the TGI (MDA-N) is reported as > 100 µM, the TGI (MDA-MB-231 breast) is reported as > 100 µM and the TGI (MALME-3M melanoma) is reported as > 100 µM.
For `O=C(CC(C(=O)c1ccco1)c1ccco1)c1ccco1` (configuration not stated), the TGI (MDA-N) was > 100 µM and the TGI (MDA-MB-231 breast) was > 100 µM.
With `O=[N+]([O-])c1cccc2c(N=Nc3ccc4ccccc4c3O)c(O)cc(S(=O)(=O)O)c12` the TGI (MDA-N) was > 100 µM and the TGI (MALME-3M melanoma) was 80.6 µM.
`O=C(/C=C/c1ccc2c(c1)OCO2)Cc1nc2ccccc2[nH]c1=O` was tested, and the TGI (MDA-N) was > 100 µM, the TGI (MDA-MB-231 breast) was 41.7 µM and the TGI (MALME-3M melanoma) was 43.4 µM.
For `O=C1c2cccc(O)c2C(=O)c2c(O)cc(CO)cc21`, the TGI (SNB-78 CNS) was > 100 µM, the TGI (XF 498 CNS) was > 100 µM and the TGI (KM20L2 colon) was > 100 µM. The TGI (DLD-1 colon) was > 100 µM, the TGI (LXFL 529 NSCLC) was > 100 µM and the TGI (HOP-18 NSCLC) was > 100 µM. For the same compound, the TGI (RXF-631 renal) was > 100 µM, the TGI (DMS 114 small cell lung) was > 100 µM and the TGI (MALME-3M melanoma) was 83.6 µM. The TGI (DMS 273 small cell lung) was > 100 µM.
`O=C(OCC1OC(n2nc(Cn3nnc(-c4cccnc4)n3)n(-c3cccc4ccccc34)c2=S)C(OC(=O)c2ccccc2)C1OC(=O)c1ccccc1)c1ccccc1` (configuration not stated) was tested, and the TGI (MDA-N) was > 100 µM, the TGI (MDA-MB-231 breast) was > 100 µM and the TGI (MALME-3M melanoma) was > 100 µM.
For `COC(=O)C1(O)C(c2ccccc2)=NC2(C)CCCC21` (configuration not stated), the TGI (MDA-N) was > 100 µM, the TGI (MDA-MB-231 breast) was > 100 µM and the TGI (MALME-3M melanoma) was > 100 µM.
In the case of `Clc1ccc(/C(=C\c2ccccc2)Cn2ccnc2)cc1`, the TGI (MDA-N) is reported as 39 µM, the TGI (MDA-MB-231 breast) is reported as 26.8 µM and the TGI (MALME-3M melanoma) is reported as 27 µM.
With `O=C(CC(=O)Nc1ccccc1)NNC(c1cc(N=Nc2ccc(Br)cc2)ccc1O)P(O)O` (configuration not stated) the TGI (MDA-N) was > 10 µM, the TGI (MDA-MB-231 breast) was > 10 µM and the TGI (MALME-3M melanoma) was > 10 µM.
With `CC(C)N1CN(c2ccccc2)C2(CCN(CCCC(=O)c3ccc(F)cc3)CC2)C1=O` the TGI (MDA-N) was 36.6 µM, the TGI (MDA-MB-231 breast) was 26.6 µM and the TGI (MALME-3M melanoma) was 29.6 µM.
For `O=[N+]([O-])/C(Cl)=C(\NCCN/C(C(Cl)=C(Cl)Cl)=C(/Cl)[N+](=O)[O-])C(Cl)=C(Cl)Cl`, the TGI (MDA-N) was > 100 µM, the TGI (MDA-MB-231 breast) was > 100 µM and the TGI (MALME-3M melanoma) was > 100 µM.
`CCOP(=O)(OCC)OC1CC(n2cc(C)c(=O)n(C)c2=O)OC1CO[Si](C)(C)C(C)(C)C` (configuration not stated) was tested, and the TGI (MDA-N) was > 100 µM and the TGI (MALME-3M melanoma) was > 100 µM.
With `CC(C)=CCC[C@@H](C)C1=C(O)C(N)=C(C)C(=O)C1=O` the TGI (MDA-N) was > 100 µM, the TGI (MDA-MB-231 breast) was > 100 µM and the TGI (MALME-3M melanoma) was > 100 µM.
With `C=CCN1C(=O)/C(=C/c2ccc(C)cc2)N=C1SC1OC(COC(C)=O)C(OC(C)=O)C(OC(C)=O)C1OC(C)=O` (configuration not stated) the TGI (MDA-N) was > 100 µM, the TGI (MDA-MB-231 breast) was > 100 µM and the TGI (MALME-3M melanoma) was > 100 µM.
`C=CC(=O)N1C/C(=C\c2ccc(Cl)cc2)C(=O)/C(=C/c2ccc(Cl)cc2)C1` gave a TGI (MDA-N) of 0.515 µM, a TGI (MDA-MB-231 breast) of 1.2 µM and a TGI (MALME-3M melanoma) of 3.84 µM.
For `Cc1c(-c2ccccc2)[nH]n(C2=NCCN2)c1=O`, the TGI (MDA-N) was > 100 µM, the TGI (MDA-MB-231 breast) was > 100 µM and the TGI (MALME-3M melanoma) was > 100 µM.
`COc1ccc(Oc2cnn(C(Br)(Br)C(C)=O)c(=O)c2Br)cc1` gave a TGI (MDA-N) of 22.9 µM, a TGI (MDA-MB-231 breast) of 32.5 µM and a TGI (MALME-3M melanoma) of 32.2 µM.
For `O=S1(=O)C[C@@H](NCc2ccccc2)[C@H](NCc2ccccc2)C1`, the TGI (MDA-N) was > 100 µM, the TGI (MDA-MB-231 breast) was > 100 µM and the TGI (MALME-3M melanoma) was > 100 µM.
`CN1CCN(C2=C(Cl)C3(OCCS3)C(F)(F)C2(F)F)CC1` (configuration not stated) was tested, and the TGI (MDA-N) was > 100 µM, the TGI (MDA-MB-231 breast) was > 100 µM and the TGI (MALME-3M melanoma) was > 100 µM.
In the case of `CC(C)C(N)C(=O)NC(CCC(=O)NCCCCC(N)C(=O)NCCCNc1ccc([N+](=O)[O-])c2[nH]c3ccccc3c(=O)c12)C(N)=O` (configuration not stated), the TGI (MDA-MB-231 breast) is reported as > 100 µM.
For `CC(C)[Si](OC/C(=C/COC(C)(C)C)[C@H]1CC=C(C(=O)c2ccccc2N2CN(C)C(=O)N(C)C2)C1)(C(C)C)C(C)C`, the TGI (MDA-N) was 4.62 µM, the TGI (MDA-MB-231 breast) was 26.6 µM and the TGI (MALME-3M melanoma) was 21.4 µM.
In the case of `S=C1NC2=C(CSC/C2=C\c2ccccc2)C(c2ccccc2)N1` (configuration not stated), the TGI (MDA-N) is reported as > 100 µM, the TGI (MDA-MB-231 breast) is reported as > 100 µM and the TGI (MALME-3M melanoma) is reported as 99.4 µM.
With `O=C1OC(c2ccccc2)N(C(=O)c2ccccc2)C1Cc1ccc(OCc2ccccc2)cc1` (configuration not stated) the TGI (MDA-N) was > 100 µM and the TGI (MDA-MB-231 breast) was 23.9 µM.
In the case of `C(=C\c1ccccc1)/COc1ccccc1C(N1CCOCC1)n1nc2ccccc2n1` (configuration not stated), the TGI (MDA-MB-231 breast) is reported as 15 µM and the TGI (MALME-3M melanoma) is reported as 14.4 µM.
`CCOC(=O)NC(Nc1c(F)c(F)c(F)c(F)c1F)(C(F)(F)F)C(F)(F)F` was tested, and the TGI (MDA-N) was > 100 µM, the TGI (MDA-MB-231 breast) was > 100 µM and the TGI (MALME-3M melanoma) was > 100 µM.
For `CN(C)c1ccc(Cc2cc3c(O)ccc(O)c3cc(Cc3ccc(N(C)C)cc3)c2=O)cc1`, the TGI (MDA-N) was 41 µM, the TGI (MDA-MB-231 breast) was 63.5 µM and the TGI (MALME-3M melanoma) was 45.4 µM.
`CC(C)C1=C(O)C2=C(C(=O)C1=O)C1(C)CCCC(C)(C)C1C(O)C2OC=O` (configuration not stated) was tested, and the TGI (MDA-N) was 28.1 µM, the TGI (MDA-MB-231 breast) was 22.5 µM and the TGI (MALME-3M melanoma) was 23.7 µM.
With `COc1ccc(N2C(=O)C3c4[nH]c5ccccc5c4C4CCCCCCCCCC4C3C2=O)cc1` (configuration not stated) the TGI (MDA-N) was > 10 µM, the TGI (MDA-MB-231 breast) was > 10 µM and the TGI (MALME-3M melanoma) was > 10 µM.
`COc1cc([N+](=O)[O-])c(OC)c2c(Nc3ccc(S(=O)(=O)O)c4cc(S(=O)(=O)O)cc(S(=O)(=O)O)c34)cc(C)nc12` was tested, and the TGI (MDA-N) was > 100 µM, the TGI (MDA-MB-231 breast) was > 100 µM and the TGI (MALME-3M melanoma) was > 100 µM.
`COP(=O)(OC)C(Nc1ccc(Cc2ccc(NC(c3ccco3)P(=O)(OC)OC)cc2)cc1)c1ccco1` (configuration not stated) was tested, and the TGI (MDA-N) was > 100 µM, the TGI (MDA-MB-231 breast) was 41.4 µM and the TGI (MALME-3M melanoma) was > 100 µM.
With `O=[N+]([O-])c1ccc2c(c1)c(N=NC(=S)Nc1ccc(Cl)cc1)c(O)n2CN1CCOCC1` the TGI (MDA-MB-231 breast) was 30.6 µM and the TGI (MALME-3M melanoma) was 18.8 µM.
`COc1ccc(C2c3cc4c(cc3OC(NCCO)C2C)OCO4)cc1` (configuration not stated) was tested, and the TGI (MDA-N) was 63.7 µM, the TGI (MDA-MB-231 breast) was 63.3 µM and the TGI (MALME-3M melanoma) was 47.7 µM.
`COc1cccc2c1OCC1Cc3ccccc3OC21` (configuration not stated) was tested, and the TGI (MDA-N) was 64.8 µM, the TGI (MDA-MB-231 breast) was > 100 µM and the TGI (MALME-3M melanoma) was > 100 µM.
With `O=C1c2cccc(O)c2C(=O)c2c(OC3OC(CO)C(O)C(O)C3O)cccc21` (configuration not stated) the TGI (MDA-N) was > 100 µM, the TGI (MDA-MB-231 breast) was > 100 µM and the TGI (MALME-3M melanoma) was 20.9 µM.
In the case of `O=C(O)/C=C\C(=O)Nc1ccc(S(=O)(=O)c2ccc(NC(=O)/C=C\C(=O)O)cc2)cc1`, the TGI (SNB-78 CNS) is reported as > 100 µM, the TGI (M19-MEL melanoma) is reported as > 100 µM and the TGI (XF 498 CNS) is reported as > 100 µM. For the same compound, the TGI (KM20L2 colon) was > 100 µM, the TGI (DLD-1 colon) was > 100 µM and the TGI (LXFL 529 NSCLC) was > 100 µM. For the same compound, the TGI (DMS 114 small cell lung) was > 100 µM and the TGI (MALME-3M melanoma) was > 100 µM.
